This experiment concerns the target T1, Human PD-L1/PD-1 (Homo sapiens, UniProt Q9NZQ7).
T1 construct: TVMV protease cleavage site (C); made in house; host or cells: HEK293T cells
Nature of the experiment: HTRF Human PD-L1/PD-1 binding assay (PD-1-Ig/PD-L1-His). As to conditions: PD-L1-His 10 nM, PD-1-Ig 20 nM. The text has this:
Methods for Testing the Ability of Macrocyclic Peptides to Compete for the Binding of PD-1 to PD-L1 Using Homogenous Time-Resolved Fluorescence (HTRF) Binding Assays
The ability of the macrocyclic peptides of the present disclosure to bind to PD-L1 was investigated using a PD-1/PD-L1 Homogenous Time-Resolved Fluorescence (HTRF) binding assay.
Homogenous Time-Resolved Fluorescence (HTRF) Assays of Binding of Soluble PD-1 to Soluble PD-L1. Soluble PD-1 and soluble PD-L1 refers to proteins with carboxyl-end truncations that remove the transmembrane-spanning regions and are fused to heterologous sequences, specifically the Fc portion of the human immunoglobuling G sequence (Ig) or the hexahistidine epitope tag (His). All binding studies were performed in an HTRF assay buffer consisting of dPBS supplemented with 0.1% (w/v) bovine serum albumin and 0.05% (v/v) Tween-20. For the PD-1-Ig/PD-L1-His binding assay, inhibitors were pre-incubated with PD-L1-His (10 nM final) for 15 m in 4 μl of assay buffer, followed by addition of PD-1-Ig (20 nM final) in 1 μl of assay buffer and further incubation for 15 m. PD-L1 fusion proteins from either human, cynomolgus macaques, or mouse were used. HTRF detection was achieved using europium crypate-labeled anti-Ig monoclonal antibody (1 nM final) and allophycocyanin (APC) labeled anti-His monoclonal antibody (20 nM final). Antibodies were diluted in HTRF detection buffer and 5 μl was dispensed on top of binding reaction. The reaction was allowed to equilibrate for 30 minutes and signal (665 nm/620 nm ratio) was obtained using an EnVision fluorometer. Additional binding assays were established between PD-1-Ig/PD-L2-His (20 and 5 nM, respectively), CD80-His/PD-L1-Ig (100 and 10 nM, respectively) and CD80-His/CTLA4-Ig (10 and 5 nM, respectively). Competition studies between biotinylated Compound No. 71 and human PD-L1-His were performed as follows. Macrocyclic peptide inhibitors were pre-incubated with PD-L1-His (10 nM final) for 60 minutes in 4 μl of assay buffer followed by addition of biotinylated Compound No. 71 (0.5 nM final) in 1 μl of assay buffer. Binding was allowed to equilibrate for 30 minutes followed by addition of europium crypated labeled Streptavidin (2.5 pM final) and APC-labeled anti-His (20 nM final) in 5 μl of HTRF buffer. The reaction was allowed to equilibrate for 30 m and signal (665 nm/620 nm ratio) was obtained using an EnVision fluorometer.
Recombinant Proteins. Carboxyl-truncated human PD-1 (amino acids 25-167) with a C-terminal human Ig epitope tag [hPD-1 (25-167)-3S-IG] and human PD-L1 (amino acids 18-239) with a C-terminal His epitope tag [hPD-L1([…])-tobacco vein mottling virus protease cleavage site (TVMV)-His] were expressed in HEK293T cells and purified sequentially by rProteinA affinity chromatography and size exclusion chromatography.
For orientation: Time-resolved FRET reads energy transfer from a long-lived donor to a nearby acceptor.

[1] abbreviates: class symbol, read-out: HTRF Human PD-L1/PD-1 Binding Assay IC50 Range.

Where two headings read alike, the source gives them in different places. Where a SMILES comes first, the peptide text is derived from it. Bridges are numbered along the chain shown (N, C = ends). [ ]: non-standard residue; d: D form. Morpholine(3S-CO) = O=C(O)[C@@H]1COCCN1; Hyp = O=C(O)[C@@H]1C[C@@H](O)CN1; NMeNle = CCCC[C@H](NC)C(=O)O; Pip = O=C(O)[C@@H]1CCCCN1; NMeA = CN[C@@H](C)C(=O)O; Dab = NCC[C@H](N)C(=O)O; Dap = NC[C@H](N)C(=O)O

T1 sequence (Q9NZQ7 with tags, fused parts or gaps): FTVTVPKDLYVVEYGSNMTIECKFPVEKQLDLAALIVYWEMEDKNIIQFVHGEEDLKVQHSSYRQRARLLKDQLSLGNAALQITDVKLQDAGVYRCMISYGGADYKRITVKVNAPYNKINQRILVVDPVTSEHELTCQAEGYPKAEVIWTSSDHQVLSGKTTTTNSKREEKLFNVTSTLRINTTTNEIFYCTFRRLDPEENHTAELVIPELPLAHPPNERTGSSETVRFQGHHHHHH

Turning to `CCCC[C@H]1C(=O)N(C)[C@@H](CCCC)C(=O)N[C@@H](C)C(=O)N[C@H](C(=O)NCC(N)=O)CSCC(=O)N[C@@H](Cc2ccc(O)cc2)C(=O)N2CCCC[C@H]2C(=O)N[C@@H](CC(=O)O)C(=O)N2CCC[C@H]2C(=O)N[C@@H](CN)C(=O)N[C@@H](CCC(=O)O)C(=O)N2C[C@H](O)C[C@H]2C(=O)N[C@@H](Cc2c[nH]c3ccccc23)C(=O)N[C@@H](CO)C(=O)N[C@@H](Cc2c[nH]c3ccccc23)C(=O)N1C` [Example 1258] ({CH2CO}-Y[Pip]DP[Dap]E[Hyp]WSW[NMeNle][NMeNle]ACG-NH2; thioether N-14), the IC50 under setting [1] lay within 1 to 9.9 nM.
Still for that read-out and setting: the same measure for `CCCC[C@H]1C(=O)N(C)[C@@H](CCCC)C(=O)N[C@@H](CC(=O)O)C(=O)N[C@H](C(=O)NCC(N)=O)CSCC(=O)N[C@@H](Cc2ccc(O)cc2)C(=O)N2CCCC[C@H]2C(=O)N[C@@H](CC(=O)O)C(=O)N2CCC[C@H]2C(=O)N[C@@H](Cc2cnc[nH]2)C(=O)N[C@@H](CCCCN)C(=O)N2C[C@H](O)C[C@H]2C(=O)N[C@@H](Cc2c[nH]c3ccccc23)C(=O)N[C@@H](CCCCN)C(=O)N[C@@H](Cc2c[nH]c3ccccc23)C(=O)N1C` [Example 1259] ({CH2CO}-Y[Pip]DPHK[Hyp]WKW[NMeNle][NMeNle]DCG-NH2; thioether N-14): 1 to 9.9 nM.
The same measure, in the same setting: with `CCCC[C@H]1C(=O)N(C)[C@@H](CCCC)C(=O)N[C@@H](CCC(=O)O)C(=O)N[C@H](C(=O)NCC(N)=O)CSCC(=O)N[C@@H](Cc2ccc(O)cc2)C(=O)N2CCCC[C@H]2C(=O)N[C@@H](CC(=O)O)C(=O)N2CCC[C@H]2C(=O)N[C@@H](Cc2cnc[nH]2)C(=O)N[C@@H](CCC(N)=O)C(=O)N2C[C@H](O)C[C@H]2C(=O)N[C@@H](Cc2c[nH]c3ccccc23)C(=O)N[C@@H](CO)C(=O)N[C@@H](Cc2c[nH]c3ccccc23)C(=O)N1C` [Example 1260] ({CH2CO}-Y[Pip]DPHQ[Hyp]WSW[NMeNle][NMeNle]ECG-NH2; thioether N-14) the figure was 1 to 9.9 nM; with `CCCC[C@H]1C(=O)N(C)[C@@H](CCCC)C(=O)N[C@@H](C)C(=O)N[C@H](C(=O)NCC(N)=O)CSCC(=O)N[C@@H](Cc2ccc(O)cc2)C(=O)N2CCCC[C@H]2C(=O)N[C@@H](CC(=O)O)C(=O)N2CCC[C@H]2C(=O)N[C@@H](Cc2cnc[nH]2)C(=O)N[C@@H](CCC(N)=O)C(=O)N2C[C@H](O)C[C@H]2C(=O)N[C@@H](Cc2c[nH]c3ccccc23)C(=O)N[C@@H](CO)C(=O)N[C@@H](Cc2c[nH]c3ccccc23)C(=O)N1C` [Example 1261] ({CH2CO}-Y[Pip]DPHQ[Hyp]WSW[NMeNle][NMeNle]ACG-NH2; thioether N-14), 1 to 9.9 nM; with `CCCC[C@H]1C(=O)N(C)[C@@H](CCCC)C(=O)N[C@@H](CCC(=O)O)C(=O)N[C@H](C(=O)NCC(N)=O)CSCC(=O)N[C@@H](Cc2ccc(O)cc2)C(=O)N2CCCC[C@H]2C(=O)N[C@@H](CC(=O)O)C(=O)N2CCC[C@H]2C(=O)N[C@@H](CN)C(=O)N[C@@H](CCC(=O)O)C(=O)N2C[C@H](O)C[C@H]2C(=O)N[C@@H](Cc2c[nH]c3ccccc23)C(=O)N[C@@H](CCN)C(=O)N[C@@H](Cc2c[nH]c3ccccc23)C(=O)N1C` [Example 1262] ({CH2CO}-Y[Pip]DP[Dap]E[Hyp]W[Dab]W[NMeNle][NMeNle]ECG-NH2; thioether N-14), 1 to 9.9 nM.
On the same count and under the same terms, with `CCCC[C@H]1C(=O)N(C)[C@@H](CCCC)C(=O)N[C@@H](CC(C)C)C(=O)N[C@H](C(=O)NCC(N)=O)CSCC(=O)N[C@@H](Cc2ccc(O)cc2)C(=O)N2CCCC[C@H]2C(=O)N[C@@H](CC(=O)O)C(=O)N2CCC[C@H]2C(=O)N[C@@H](CN)C(=O)N[C@@H](CCC(=O)O)C(=O)N2C[C@H](O)C[C@H]2C(=O)N[C@@H](Cc2c[nH]c3ccccc23)C(=O)N[C@@H](CO)C(=O)N[C@@H](Cc2c[nH]c3ccccc23)C(=O)N1C` [Example 1272] ({CH2CO}-Y[Pip]DP[Dap]E[Hyp]WSW[NMeNle][NMeNle]LCG-NH2; thioether N-14) the figure was 1 to 9.9 nM.
As for `CCCC[C@H]1C(=O)N(C)[C@@H](CCCC)C(=O)N[C@@H](CC(C)C)C(=O)N[C@H](C(=O)NCC(N)=O)CSCC(=O)N[C@@H](Cc2ccc(O)cc2)C(=O)N2CCCC[C@H]2C(=O)N[C@@H](CC(N)=O)C(=O)N2CCC[C@H]2C(=O)N[C@@H](Cc2cnc[nH]2)C(=O)N[C@@H](CCC(N)=O)C(=O)N2C[C@H](O)C[C@H]2C(=O)N[C@@H](Cc2c[nH]c3ccccc23)C(=O)N[C@@H](CO)C(=O)N[C@@H](Cc2c[nH]c3ccccc23)C(=O)N1C` [Example 1273] ({CH2CO}-Y[Pip]NPHQ[Hyp]WSW[NMeNle][NMeNle]LCG-NH2; thioether N-14), under setting [1], the IC50 lay within 1 to 9.9 nM.
Same read-out and setting: the same measure for `CCCC[C@H]1C(=O)N(C)[C@@H](CCCC)C(=O)N[C@@H](C)C(=O)N[C@H](C(=O)NCC(N)=O)CSCC(=O)N[C@@H](Cc2ccc(O)cc2)C(=O)N2CCNC[C@H]2C(=O)N[C@@H](CC(N)=O)C(=O)N2CCC[C@H]2C(=O)N[C@@H](Cc2cnc[nH]2)C(=O)N[C@@H](CCC(N)=O)C(=O)N2C[C@H](O)C[C@H]2C(=O)N[C@@H](Cc2c[nH]c3ccccc23)C(=O)N[C@@H](CO)C(=O)N[C@@H](Cc2c[nH]c3ccccc23)C(=O)N1C` [Example 1275]: 1 to 9.9 nM.
As for `CCCC[C@H]1C(=O)N(C)[C@@H](CCCC)C(=O)N[C@@H](C)C(=O)N[C@H](C(=O)NCC(N)=O)CSCC(=O)N[C@@H](Cc2ccc(O)cc2)C(=O)N2CCCC[C@H]2C(=O)N[C@@H](CC(N)=O)C(=O)N2CCC[C@H]2C(=O)N[C@@H](Cc2cnc[nH]2)C(=O)N[C@@H](CCC(N)=O)C(=O)N2CCNC[C@H]2C(=O)N[C@@H](Cc2c[nH]c3ccccc23)C(=O)N[C@@H](CO)C(=O)N[C@@H](Cc2c[nH]c3ccccc23)C(=O)N1C` [Example 1276], where the note is “read-out: HTRF Human PD-L1/PD-1 Binding Assay IC50”, the IC50 turned out to be 468 nM.
As to `CCCC[C@H]1C(=O)N(C)[C@@H](CCCC)C(=O)N[C@@H](C)C(=O)N[C@H](C(=O)NCC(N)=O)CSCC(=O)N[C@@H](Cc2ccc(O)cc2)C(=O)N2CCCC[C@H]2C(=O)N[C@@H](CC(N)=O)C(=O)N2CCC[C@H]2C(=O)N[C@@H](Cc2cnc[nH]2)C(=O)N[C@@H](CCC(N)=O)C(=O)N2CCOC[C@H]2C(=O)N[C@@H](Cc2c[nH]c3ccccc23)C(=O)N[C@@H](CO)C(=O)N[C@@H](Cc2c[nH]c3ccccc23)C(=O)N1C` [Example 1277], under setting [1], the IC50 is 10 to 99.9 nM.
Still for that read-out and setting: the same measure for `CCCC[C@H]1C(=O)N(C)[C@@H](CCCC)C(=O)N[C@@H](C)C(=O)N[C@H](C(=O)NCC(N)=O)CSCC(=O)N[C@@H](Cc2ccc(O)cc2)C(=O)N(C)[C@@H](C)C(=O)N[C@@H](CC(N)=O)C(=O)N2CCC[C@H]2C(=O)N[C@@H](Cc2cnc[nH]2)C(=O)N[C@@H](CCC(N)=O)C(=O)N2CCNC[C@H]2C(=O)N[C@@H](Cc2c[nH]c3ccccc23)C(=O)N[C@@H](CO)C(=O)N[C@@H](Cc2c[nH]c3ccccc23)C(=O)N1C` [Example 1278]: 10 to 99.9 nM.
Same read-out and setting: with `CCCC[C@H]1C(=O)N(C)[C@@H](CCCC)C(=O)N[C@@H](C)C(=O)N[C@H](C(=O)NCC(N)=O)CSCC(=O)N[C@@H](Cc2ccc(O)cc2)C(=O)N(C)[C@@H](C)C(=O)N[C@@H](CC(N)=O)C(=O)N2CCC[C@H]2C(=O)N[C@@H](Cc2cnc[nH]2)C(=O)N[C@@H](CCC(N)=O)C(=O)N2CCOC[C@H]2C(=O)N[C@@H](Cc2c[nH]c3ccccc23)C(=O)N[C@@H](CO)C(=O)N[C@@H](Cc2c[nH]c3ccccc23)C(=O)N1C` [Example 1279] the figure was 10 to 99.9 nM.
Still for that read-out and setting: the same measure for `CCCC[C@H]1C(=O)N(C)[C@@H](CCCC)C(=O)N[C@@H](C)C(=O)N[C@H](C(=O)NCC(N)=O)CSCC(=O)N[C@@H](Cc2ccc(O)cc2)C(=O)N(C)[C@@H](C)C(=O)N[C@@H](CC(N)=O)C(=O)N2CCOC[C@H]2C(=O)N[C@@H](Cc2cnc[nH]2)C(=O)N[C@@H](CCC(N)=O)C(=O)N2C[C@H](O)C[C@H]2C(=O)N[C@@H](Cc2c[nH]c3ccccc23)C(=O)N[C@@H](CO)C(=O)N[C@@H](Cc2c[nH]c3ccccc23)C(=O)N1C` [Example 1280] ({CH2CO}-Y[NMeA]N[Morpholine(3S-CO)]HQ[Hyp]WSW[NMeNle][NMeNle]ACG-NH2; thioether N-14): 10 to 99.9 nM.
